Results on five molecules are retold here after ChEMBL document CHEMBL5465560, “Selectivity Literature for EUbOPEN Chemogenomic Library” (2024).

For experiment [1], the target named is T1, Serine/threonine-protein kinase D3 (Homo sapiens) (UniProt O94806).
T1 sequence (whole entry): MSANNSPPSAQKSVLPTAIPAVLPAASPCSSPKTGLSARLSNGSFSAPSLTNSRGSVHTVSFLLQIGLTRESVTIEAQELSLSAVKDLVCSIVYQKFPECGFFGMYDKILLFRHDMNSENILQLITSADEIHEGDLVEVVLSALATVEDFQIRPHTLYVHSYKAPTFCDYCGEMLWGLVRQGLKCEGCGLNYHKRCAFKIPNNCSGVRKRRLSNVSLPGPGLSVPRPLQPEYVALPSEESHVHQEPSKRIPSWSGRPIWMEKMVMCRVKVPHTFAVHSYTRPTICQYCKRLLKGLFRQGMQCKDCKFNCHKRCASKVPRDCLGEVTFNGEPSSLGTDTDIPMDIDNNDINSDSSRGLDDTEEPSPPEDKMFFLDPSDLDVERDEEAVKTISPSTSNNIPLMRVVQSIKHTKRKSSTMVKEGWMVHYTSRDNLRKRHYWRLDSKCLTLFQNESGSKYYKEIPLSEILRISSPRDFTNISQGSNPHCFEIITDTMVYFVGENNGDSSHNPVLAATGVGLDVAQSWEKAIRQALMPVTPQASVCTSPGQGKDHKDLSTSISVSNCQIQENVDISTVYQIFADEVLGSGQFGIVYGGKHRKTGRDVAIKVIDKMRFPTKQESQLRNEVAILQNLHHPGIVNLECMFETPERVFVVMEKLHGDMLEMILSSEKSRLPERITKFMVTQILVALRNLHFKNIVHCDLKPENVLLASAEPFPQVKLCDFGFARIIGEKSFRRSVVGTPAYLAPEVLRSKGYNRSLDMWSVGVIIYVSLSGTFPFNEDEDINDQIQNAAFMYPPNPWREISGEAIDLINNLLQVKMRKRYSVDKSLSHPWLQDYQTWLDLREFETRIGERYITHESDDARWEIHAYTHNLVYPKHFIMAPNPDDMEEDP
Nature of the experiment: Selectivity interaction (Kinase panel (Invitrogen)) EUB0000639a PRKD3. The following applies: at 200 nM.

Experiment [2] concerns the target Activated CDC42 kinase 1 (Homo sapiens, UniProt Q07912). Nature of the experiment: Selectivity interaction (KinomeScan (DiscoverX)) EUB0001049a TNK2. Conditions: at 1 µM.
Experiment [3] concerns the target Mitogen-activated protein kinase 11 (Homo sapiens) (UniProt Q15759). Nature of the experiment: Selectivity interaction (KinomeScan (DiscoverX)) EUB0000092b MAPK11. Conditions: at 10 µM.
Experiment [4] deals with T2, Tyrosine-protein kinase JAK3 (Homo sapiens) (UniProt P52333).
T2 sequence (whole entry): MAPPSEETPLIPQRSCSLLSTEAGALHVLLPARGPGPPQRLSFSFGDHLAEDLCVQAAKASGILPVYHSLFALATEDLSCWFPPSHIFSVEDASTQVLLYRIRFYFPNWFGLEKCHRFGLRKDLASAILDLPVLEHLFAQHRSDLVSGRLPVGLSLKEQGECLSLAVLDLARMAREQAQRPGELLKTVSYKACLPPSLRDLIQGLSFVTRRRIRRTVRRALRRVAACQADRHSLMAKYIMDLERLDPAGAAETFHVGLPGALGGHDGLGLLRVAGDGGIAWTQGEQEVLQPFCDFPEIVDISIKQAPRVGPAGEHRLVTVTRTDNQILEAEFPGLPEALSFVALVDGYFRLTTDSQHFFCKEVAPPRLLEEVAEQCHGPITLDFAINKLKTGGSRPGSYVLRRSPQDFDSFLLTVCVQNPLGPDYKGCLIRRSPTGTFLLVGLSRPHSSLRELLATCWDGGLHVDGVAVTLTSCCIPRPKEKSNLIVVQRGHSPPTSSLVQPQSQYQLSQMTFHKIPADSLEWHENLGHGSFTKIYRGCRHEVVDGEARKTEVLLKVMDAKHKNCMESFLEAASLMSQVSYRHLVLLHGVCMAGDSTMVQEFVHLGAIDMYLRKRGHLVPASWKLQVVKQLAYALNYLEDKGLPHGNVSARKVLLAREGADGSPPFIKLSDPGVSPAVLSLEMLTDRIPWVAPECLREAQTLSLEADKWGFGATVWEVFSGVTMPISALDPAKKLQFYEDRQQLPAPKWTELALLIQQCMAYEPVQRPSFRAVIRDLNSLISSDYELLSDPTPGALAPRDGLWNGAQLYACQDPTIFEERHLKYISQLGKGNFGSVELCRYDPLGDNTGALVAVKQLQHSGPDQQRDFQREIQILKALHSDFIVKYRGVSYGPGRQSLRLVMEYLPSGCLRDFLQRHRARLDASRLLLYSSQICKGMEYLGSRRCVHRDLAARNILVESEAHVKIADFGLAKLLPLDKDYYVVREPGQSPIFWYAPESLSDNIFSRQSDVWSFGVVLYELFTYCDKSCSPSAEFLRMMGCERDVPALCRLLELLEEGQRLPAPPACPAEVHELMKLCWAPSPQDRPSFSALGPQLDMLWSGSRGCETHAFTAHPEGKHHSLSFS
As to the kind of experiment: Selectivity interaction (KinomeScan (DiscoverX)) EUB0000045b JAK3. Conditions: at 1 µM.

Experiment [5] concerns the target Serine/threonine-protein kinase PAK 6 (Homo sapiens) (UniProt Q9NQU5). As to the kind of experiment: Selectivity interaction (KinomeScan (DiscoverX)) EUB0000045b PAK6. Conditions: at 10 µM.
Experiment [6] addresses 5'-AMP-activated protein kinase catalytic subunit alpha-1 (Homo sapiens, UniProt Q13131). Nature of the experiment: Selectivity interaction (KinomeScan (DiscoverX)) EUB0000618a PRKAA1. The following applies: at 10 µM.

Chain of 5'-AMP-activated protein kinase catalytic subunit alpha-1 (Q13131 whole entry, looked up): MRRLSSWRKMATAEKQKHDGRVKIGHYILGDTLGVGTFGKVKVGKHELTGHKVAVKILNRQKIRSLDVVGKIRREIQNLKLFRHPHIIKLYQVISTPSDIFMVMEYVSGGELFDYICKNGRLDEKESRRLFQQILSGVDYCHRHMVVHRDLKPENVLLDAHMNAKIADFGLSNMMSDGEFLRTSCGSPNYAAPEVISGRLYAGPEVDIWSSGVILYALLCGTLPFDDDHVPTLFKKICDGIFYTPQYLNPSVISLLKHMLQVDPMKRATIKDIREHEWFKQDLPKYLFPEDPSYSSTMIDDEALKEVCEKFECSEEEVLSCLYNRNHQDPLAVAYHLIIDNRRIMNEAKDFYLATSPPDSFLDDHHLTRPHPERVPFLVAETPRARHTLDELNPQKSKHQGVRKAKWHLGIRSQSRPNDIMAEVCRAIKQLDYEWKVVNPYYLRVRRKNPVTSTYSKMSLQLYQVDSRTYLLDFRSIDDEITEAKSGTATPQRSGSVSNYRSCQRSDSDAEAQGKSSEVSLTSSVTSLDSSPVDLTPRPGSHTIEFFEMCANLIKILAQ
Chain of Mitogen-activated protein kinase 11 (Homo sapiens) (Q15759 whole entry): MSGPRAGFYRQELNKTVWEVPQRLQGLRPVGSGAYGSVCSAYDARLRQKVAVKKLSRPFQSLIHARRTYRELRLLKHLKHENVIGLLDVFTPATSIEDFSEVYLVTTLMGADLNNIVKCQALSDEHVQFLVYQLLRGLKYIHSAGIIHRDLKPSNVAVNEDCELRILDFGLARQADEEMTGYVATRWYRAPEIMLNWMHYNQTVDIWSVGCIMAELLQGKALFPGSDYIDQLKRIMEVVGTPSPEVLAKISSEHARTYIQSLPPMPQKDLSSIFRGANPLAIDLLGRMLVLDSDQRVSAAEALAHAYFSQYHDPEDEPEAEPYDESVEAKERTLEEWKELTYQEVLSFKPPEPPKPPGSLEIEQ
Chain of Activated CDC42 kinase 1 (Q07912 whole entry, looked up): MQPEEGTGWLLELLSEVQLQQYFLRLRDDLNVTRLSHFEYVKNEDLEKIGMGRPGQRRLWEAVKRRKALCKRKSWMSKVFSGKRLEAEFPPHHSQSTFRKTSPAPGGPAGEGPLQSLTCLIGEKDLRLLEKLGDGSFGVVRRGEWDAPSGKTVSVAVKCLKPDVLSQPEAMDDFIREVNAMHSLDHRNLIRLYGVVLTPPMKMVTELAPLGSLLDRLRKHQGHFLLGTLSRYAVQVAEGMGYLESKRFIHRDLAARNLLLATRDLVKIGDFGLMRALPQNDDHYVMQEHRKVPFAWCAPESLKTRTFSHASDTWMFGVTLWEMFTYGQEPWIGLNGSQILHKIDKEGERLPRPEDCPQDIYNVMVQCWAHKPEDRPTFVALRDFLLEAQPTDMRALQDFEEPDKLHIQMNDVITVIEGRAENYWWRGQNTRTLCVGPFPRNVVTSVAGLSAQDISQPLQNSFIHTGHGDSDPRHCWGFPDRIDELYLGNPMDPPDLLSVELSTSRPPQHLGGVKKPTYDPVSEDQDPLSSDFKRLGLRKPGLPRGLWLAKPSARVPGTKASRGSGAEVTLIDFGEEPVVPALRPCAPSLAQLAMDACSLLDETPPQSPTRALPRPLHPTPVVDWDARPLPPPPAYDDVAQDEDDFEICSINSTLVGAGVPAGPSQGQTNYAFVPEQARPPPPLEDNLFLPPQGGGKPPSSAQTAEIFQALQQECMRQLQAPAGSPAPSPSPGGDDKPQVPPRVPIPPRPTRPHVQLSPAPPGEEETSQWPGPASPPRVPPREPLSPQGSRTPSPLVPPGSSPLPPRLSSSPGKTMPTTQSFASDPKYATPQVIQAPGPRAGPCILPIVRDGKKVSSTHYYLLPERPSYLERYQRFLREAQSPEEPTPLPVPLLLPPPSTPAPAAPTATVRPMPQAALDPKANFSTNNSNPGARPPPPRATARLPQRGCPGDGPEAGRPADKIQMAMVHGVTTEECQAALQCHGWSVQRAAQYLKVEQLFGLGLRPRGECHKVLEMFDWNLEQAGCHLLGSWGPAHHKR
Chain of Serine/threonine-protein kinase PAK 6 (Homo sapiens) (Q9NQU5 whole entry, looked up): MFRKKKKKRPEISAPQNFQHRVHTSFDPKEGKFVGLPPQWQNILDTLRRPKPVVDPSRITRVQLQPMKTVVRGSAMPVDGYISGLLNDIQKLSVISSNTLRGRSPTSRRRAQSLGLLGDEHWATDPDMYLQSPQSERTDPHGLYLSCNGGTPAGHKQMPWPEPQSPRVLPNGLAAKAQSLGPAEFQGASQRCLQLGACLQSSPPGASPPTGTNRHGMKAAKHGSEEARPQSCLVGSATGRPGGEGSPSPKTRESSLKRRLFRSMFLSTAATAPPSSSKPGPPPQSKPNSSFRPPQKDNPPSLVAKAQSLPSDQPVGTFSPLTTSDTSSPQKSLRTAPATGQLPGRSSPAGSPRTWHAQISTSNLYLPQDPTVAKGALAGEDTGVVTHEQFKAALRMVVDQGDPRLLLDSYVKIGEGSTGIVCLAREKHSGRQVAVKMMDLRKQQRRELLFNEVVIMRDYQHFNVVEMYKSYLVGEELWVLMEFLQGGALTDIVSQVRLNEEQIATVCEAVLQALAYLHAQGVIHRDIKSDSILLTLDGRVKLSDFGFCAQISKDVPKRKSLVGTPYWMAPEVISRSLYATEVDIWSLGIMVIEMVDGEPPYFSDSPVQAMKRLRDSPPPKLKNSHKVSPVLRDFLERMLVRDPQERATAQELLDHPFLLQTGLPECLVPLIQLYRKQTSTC

As for `CC[C@@H]1[C@H](F)C(=O)N[C@@H]1COc1nccc2cc(C(N)=O)c(OC)cc12` [ZIMLOVISERTIB], the % of inhibition in experiment [1] turned out to be 10.2%. In the case of `COc1cc(Nc2nc(C)cc(-c3cnn4nc(OC)ccc34)n2)cc(C(F)(F)F)c1`, the % of control in experiment [2] is 77%. In the case of `CCC(=O)N1CCN(c2ccc(-n3c(=O)ccc4cnc5ccc(-c6cnc7ccccc7c6)cc5c43)cc2C(F)(F)F)CC1`, the % of control in experiment [3] came out at 53%.

As for `C=CC(=O)Nc1cc(-n2c(=O)ccc3cnc4ccc(-c5ccc(NS(C)(=O)=O)cc5)cc4c32)ccc1C`, the values for the % of control in experiment [4] and in experiment [5] were 6.6% and 100%, respectively. In experiment [6], `O[C@H]1CC[C@H](Nc2ncc3nc(Nc4c(F)cc(F)cc4F)n([C@H]4CCOC4)c3n2)CC1` yielded a % of control of 99%.
